From patent US20240018120A1, “MAGL INHIBITORS” (H. LUNDBECK A/S, priority 2020, published 2024)

What was measured:
[1] = system: cryopreserved human hepatocytes; assay: In vitro human hepatocyte stability; assay type: in vitro ADME; details: human hepatocytes 0.5×10^6 cells/mL, 1 μM
Procedure: The metabolic stability of test articles (1 μM) in commercially sourced, pooled donor, cryopreserved human hepatocytes (0.5×10^6 cells/mL) was determined in duplicate. The CLint reactions (250 μL) were initiated by addition of test compound. Aliquots (25 μL) were taken at 0, 15, 30, 45, 60, 90, 120 and 240 minutes and then protein crashed with ice-cold acetonitrile containing internal standard then centrifuged (3220 g for 25 minutes). Supernatant was used for LC-MS/MS analysis. The in vitro half-life (in vitro t½) was determined from the slope value: in vitro t1/2=−0.693/k. Conversion of the in vitro t1/2 (in min) into the scale-up unbound intrinsic clearance (Scaled-up unbound CLint, in mL/min/kg) was done using the following equation (mean of duplicate determinations), with data shown in Table 5: Scaled-up unbound CLint=kV/N×scaling factor. V=incubation volume (0.25 mL); N=number of hepatocytes per well ([…]). Scaling factors for in vivo intrinsic clearance prediction are listed below: […]

MAGL [2] = biological target: T1, MAGL (Homo sapiens, UniProt Q99685); assay: In vitro competitive substrate hydrolysis enzyme activity assay (pNPA), HEK293 cell lysates; assay type: biochemical; design: expressed in transfected cells; host or cells: HEK293; details: HEK293 lysate
T1 sequence (Q99685 1-303): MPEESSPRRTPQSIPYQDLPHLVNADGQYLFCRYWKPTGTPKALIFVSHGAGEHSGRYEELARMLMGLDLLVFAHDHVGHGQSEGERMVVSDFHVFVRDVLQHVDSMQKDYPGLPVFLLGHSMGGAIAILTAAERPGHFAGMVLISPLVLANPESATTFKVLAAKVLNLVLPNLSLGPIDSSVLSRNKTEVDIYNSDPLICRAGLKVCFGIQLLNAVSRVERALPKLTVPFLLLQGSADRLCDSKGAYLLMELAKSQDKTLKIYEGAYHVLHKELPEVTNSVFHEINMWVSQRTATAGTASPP
Method in brief: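 Lysates of HEK293 cells expressing human MAGL (~1.2 μg protein) preincubated 30 min at 25° C with inhibitor in 50 mM HEPES pH 7.0, 200 mM KCl, 1 mM EDTA. pNPA substrate then added (2× stock 2.5 mM), and A405 followed for 20 min at 25° C. Rates normalized to DMSO, and IC50 from 4-parameter fit.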

MAGL [3] = biological target: T1, MAGL; assay: In vitro competitive activity-based protein profiling, PC3 human cell membrane proteomes; assay type: biochemical; design: endogenous in cells; host or cells: PC3 human cells (membrane proteome); details: human PC3 membrane proteome; for inhibition at 1 µM: read-out: MAGL % inh. 1 μM (human PC3)
Method in brief: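 Competitive ABPP in PC3 membrane proteome (2.0 mg/mL protein): inhibitors preincubated 30 min at 37° C, then JW912-Bodipy probe added for 30 min at room temperature. MAGL band fluorescence after SDS-PAGE normalised to DMSO; IC50 from 4-parameter sigmoidal fit.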

Compound	Scaled-up unbound CLint [1]	IC50 (MAGL [2])	inhibition at 1 µM (MAGL [3])	IC50 (MAGL [3])
O=C(Nc1cccnc1)[C@H]1CC12CCN(C(=O)OC(C(F)(F)F)C(F)(F)F)CC2 (single isomer, unassigned) [Example 2]	34.8 mL/min/kg	0.00289 µM	100%	0.002 µM
CP(C)(=O)c1ccc(NC(=O)C2CC23CCN(C(=O)OC(C(F)(F)F)C(F)(F)F)CC3)cn1 (single isomer, unassigned) [Example 20, 1,1,1,3,3,3-Hexafluoropropan-2-yl (R or S)-1-((6-(dimethylphosphoryl)pyridin-3-yl)carbamoyl)-6-azaspiro[2.5]octane-6-carboxylate]	0.85 mL/min/kg	–	–	0.029 µM
O=C(Nc1ccncc1)C1CC12CCN(C(=O)OC(C(F)(F)F)C(F)(F)F)CC2 (single isomer, unassigned) [Example 24, 1,1,1,3,3,3-Hexafluoropropan-2-yl (R or S)-1-(pyridin-4-ylcarbamoyl)-6-azaspiro[2.5]octane-6-carboxylate]	11.9 mL/min/kg	–	–	0.0024 µM
O=C(Nc1ccc(-n2cccn2)nc1)C1CC12CCN(C(=O)OC(C(F)(F)F)C(F)(F)F)CC2 (single isomer, unassigned) [Example 29, 1,1,1,3,3,3-Hexafluoropropan-2-yl (R or S)-1-((6-(1H-pyrazol-1-yl)pyridin-3-yl)carbamoyl)-6-azaspiro[2.5]octane-6-carboxylate]	32.74 mL/min/kg	–	–	0.003 µM
O=C(Nc1cncc(F)c1)C1CC12CCN(C(=O)OC(C(F)(F)F)C(F)(F)F)CC2 (single isomer, unassigned) [Example 40, 1,1,1,3,3,3-hexafluoropropan-2-yl (R or S)-1-((5-fluoropyridin-3-yl)carbamoyl)-6-azaspiro[2.5]octane-6-carboxylate]	43.25 mL/min/kg	0.00343 µM	–	0.0027 µM
O=C(Nc1cncnc1)C1CC12CCN(C(=O)OC(C(F)(F)F)C(F)(F)F)CC2 (single isomer, unassigned) [Example 96, 1,1,1,3,3,3-hexafluoropropan-2-yl (R or S)-1-(pyrimidin-5-ylcarbamoyl)-6-azaspiro[2.5]octane-6-carboxylate]	17.09 mL/min/kg	0.0489 µM	100%	0.0193 µM
Cc1cnc(NC(=O)C2CC23CCN(C(=O)OC(C(F)(F)F)C(F)(F)F)CC3)cn1 (single isomer, unassigned) [Example 112, 1,1,1,3,3,3-hexafluoropropan-2-yl (R or S)-1-((5-methylpyrazin-2-yl)carbamoyl)-6-azaspiro[2.5]octane-6-carboxylate]	9.59 mL/min/kg	–	–	0.0042 µM
O=C(NCC1CCOCC1)[C@H]1CC12CCN(C(=O)OC(C(F)(F)F)C(F)(F)F)CC2 (single isomer, unassigned) [Example 117]	20.55 mL/min/kg	–	–	0.0047 µM
Cn1ccc(NC(=O)C2CC23CCN(C(=O)OC(C(F)(F)F)C(F)(F)F)CC3)n1 (single isomer, unassigned) [Example 127, 1,1,1,3,3,3-hexafluoropropan-2-yl (R or S)-1-((1-methyl-1H-pyrazol-3-yl)carbamoyl)-6-azaspiro[2.5]octane-6-carboxylate]	9.51 mL/min/kg	–	–	0.019 µM
CC1(NC(=O)C2CC23CCN(C(=O)OC(C(F)(F)F)C(F)(F)F)CC3)CCOCC1 (single isomer, unassigned) [Example 132, 1,1,1,3,3,3-hexafluoropropan-2-yl (R or S)-1-((4-methyltetrahydro-2H-pyran-4-yl)carbamoyl)-6-azaspiro[2.5]octane-6-carboxylate]	44.18 mL/min/kg	–	–	0.027 µM
Cn1nccc1NC(=O)C1CC12CCN(C(=O)OC(C(F)(F)F)C(F)(F)F)CC2 (single isomer, unassigned) [Example 135, 1,1,1,3,3,3-hexafluoropropan-2-yl (R or S)-1-((1-methyl-1H-pyrazol-5-yl)carbamoyl)-6-azaspiro[2.5]octane-6-carboxylate]	16.79 mL/min/kg	–	–	0.015 µM
O=C(Nc1nccs1)C1CC12CCN(C(=O)OC(C(F)(F)F)C(F)(F)F)CC2 (single isomer, unassigned) [Example 138, 1,1,1,3,3,3-hexafluoropropan-2-yl (R or S)-1-(thiazol-2-ylcarbamoyl)-6-azaspiro[2.5]octane-6-carboxylate]	40.48 mL/min/kg	–	–	0.001 µM
O=C(NCc1ccccc1)[C@H]1CC12CCN(C(=O)OC(C(F)(F)F)C(F)(F)F)CC2 (single isomer, unassigned) [Example 150]	88.79 mL/min/kg	–	–	0.0031 µM
CC1(CNC(=O)C2CC23CCN(C(=O)OC(C(F)(F)F)C(F)(F)F)CC3)CCOCC1 (single isomer, unassigned) [Example 168, 1,1,1,3,3,3-hexafluoropropan-2-yl (R or S)-1-(((4-methyltetrahydro-2H-pyran-4-yl)methyl)carbamoyl)-6-azaspiro[2.5]octane-6-carboxylate]	61.36 mL/min/kg	–	–	0.0074 µM
CS(=O)(=O)Nc1ccc(NC(=O)C2CC23CCN(C(=O)OC(C(F)(F)F)C(F)(F)F)CC3)cn1 (single isomer, unassigned) [Example 181, 1,1,1,3,3,3-hexafluoropropan-2-yl (R or S)-1-((6-(methylsulfonamido)pyridin-3-yl)carbamoyl)-6-azaspiro[2.5]octane-6-carboxylate]	1.94 mL/min/kg	–	–	0.0305 µM
